According to article PMC7002685, “Inhibition of vascular calcification by inositol phosphates derivatized with ethylene glycol oligomers” (Nature Communications, 2020):
Where “and” joins values, the source holds several entries; their conditions need not be identical. Identical values can stand only once. Like-named read-outs stand apart in the source and are kept apart here.

What was measured:
CPP2 = assay: Competitive 18F-NaF binding assay on CPPs; parameters: species or system human; conditions: for IC50: CPP2 20 µg Ca/mL, 18F-NaF 1 nM, 1 h RT, read-out: IC50 (reduction of 18F binding to CPP)
Description: A ^18F-NaF-based competitive binding assay was developed to indirectly assess the inhibitor affinity (IC50) to CPPs. The uptake mechanism of ^18F-NaF, a marker of micro-calcification activity by chemisorption onto hydroxyapatite crystals, is contingent on the rapid exchange of hydroxyl (OH^−) groups present on the hydroxyapatite surface (Ca5(PO4)3(OH)) by ^18F^− to form fluoroapatite (Ca5(PO4)3^18F)[34],[54].
Triplicate aliquots of CPP2s (20 µg Ca/mL) in 100 μL assay buffer (100 mM HBS, pH 7.4 (RT)) were incubated for 1 h at RT in the presence of increasing concentrations of compounds in 50 μL Milli-Q water and ^18F-NaF (1 nM) in 50 μL assay buffer, resulting in a total incubation volume of 200 μL (^18F-NaF was prepared using a FASTlab synthesizer (GE Healthcare, Little Chalfont, UK) and commercially available ^18F-NaF cassettes (GE Healthcare)). Maximum radiotracer binding was determined by incubating CPP2s with ^18F-NaF (1 nM) only. The reaction was terminated by rapid filtration through a SOLAμ™ SPE plate (HRP 2 mg/mL 96-well plate, 22 μm; Thermo Fisher Scientific). SPE individual column matrices were washed twice rapidly in assay buffer and radioactivity on the filters determined by an automatic gamma counter (Wizard2 Gamma Counter, Perkin Elmer, Waltham, MA, USA). […] IC50 is the concentration of […] that gives a response half way between the bottom and top parts of the curve. ^18F-NaF micro-PET/computed tomography (micro-PET/CT) was employed for ex vivo analysis of (OEG2)2-IP4’s engagement to target calcified human tissue explants, as described previously. […] Following incubations, samples were washed twice in 0.1 M PBS (1 min per wash) and mounted on a Petri dish for micro-PET/CT imaging (nanoPET/CT, Mediso, Budapest, Hungary). In total, seven samples from the femoral arteries of three patients with ischemic peripheral disease and three samples from native aortic valves of three patients undergoing valve replacement surgery were used. All samples were collected at the time of surgery and stored in 4% paraformaldehyde at RT until further use. All patients gave their written, informed consent. All procedures had local ethical approval (06/S0703/110, 12/WS/0227, 09/S0703/118, and 12/NW/0036). All studies were approved by East and West Scotland Research Ethics Committees, and all experiments were conducted according to the principles expressed in the Declaration of Helsinki.

[1] = test system: transformation of CPP1 to CPP2 in pooled human serum; assay: In vitro serum calcification propensity (T50) screening assay; format: biochemical; parameters: key to T50: T50 in minutes (time to 50% CPP phase transition); conditions: for activity/unit mass: mean c350 x mw (Na salt); for concentration upon which a T50 of 350 min is reached (c350), mean: mean of n experiments
[2] = 3 µM, individual experiments, Fig. 2a
[3] = 10 µM, individual experiments, Fig. 2a

## COCCOCCO[C@@H]1[C@@H](OP(=O)(O)O)[C@H](OCCOCCOC)[C@@H](OP(=O)(O)O)[C@@H](OP(=O)(O)O)[C@H]1OP(=O)(O)O [(OEG2)2-IP4, 4,6-Di-O-(methoxy-diethyleneglycol)-myo-inositol-1,2,3,5-tetrakis(phosphate)]
CPP2
  IC50: 0.81 µM
CPP2; as assessed in Fig. 2c, read-out: IC90 (concentration inhibiting 90% 18F-NaF binding)
  IC90: 8.6 µM
CPP2; as used for tissue explants, read-out: IC90
  IC90: 8.55 µM
CPP2; concentration 0.75 (unit not given), listed as INS-3001
  18F-NaF percentage binding to CPP2: 105.464% and 94.9958% and 112.003%
CPP2; concentration 2.5 (unit not given), listed as INS-3001
  18F-NaF percentage binding to CPP2: 107.219% and 104.697% and 115.819%
CPP2; concentration 7.5 (unit not given), listed as INS-3001
  18F-NaF percentage binding to CPP2: 94.1661% and 101.068% and 121.959%
CPP2; concentration 25 (unit not given), listed as INS-3001
  18F-NaF percentage binding to CPP2: 108.675% and 100.128% and 123.491%
CPP2; concentration 75 (unit not given), listed as INS-3001
  18F-NaF percentage binding to CPP2: 113.007% and 98.9202% and 111.871%
CPP2; concentration 250 (unit not given), listed as INS-3001
  18F-NaF percentage binding to CPP2: 85.5215% and 95.9196% and 111.875%
CPP2; concentration 750 (unit not given), listed as INS-3001
  18F-NaF percentage binding to CPP2: 70.0481% and 89.1189% and 102.542%
CPP2; concentration 1750 (unit not given), listed as INS-3001
  18F-NaF percentage binding to CPP2: 31.7703% and 41.2562% and 38.4419%
CPP2; concentration 7500 (unit not given), listed as INS-3001
  18F-NaF percentage binding to CPP2: 12.1628% and 10.8683% and 17.508%
CPP2; concentration 25000 (unit not given), listed as INS-3001
  18F-NaF percentage binding to CPP2: 16.4031% and 18.0245% and 30.0027%
CPP2; concentration 75000 (unit not given), listed as INS-3001
  18F-NaF percentage binding to CPP2: 21.5957% and 22.2508% and 37.2218%
CPP2; concentration 250000 (unit not given), listed as INS-3001
  18F-NaF percentage binding to CPP2: 17.9597% and 19.9827% and 35.4457%
CPP2; concentration 750000 (unit not given), replicates Fig. 2c, listed as INS-3001
  18F-NaF percentage binding to CPP2: 28.6563% and 25.7698% and 36.7738%
[1]; 0.3 µM, individual experiments, Fig. 2a
  T50: 225.667 min and 200.6 min and 198.8 min
[1]; 1 µM, individual experiments, Fig. 2a
  T50: 245.5 min and 222.6 min and 227.433 min
[1]; [2]
  T50: 295.5 min and 257.733 min and 269.633 min
[1]; [3]
  T50: 669.833 min and 505.133 min and 608.55 min
[1]; concentration 0.3 μM, one value per experiment
  T50: 225.667 and 200.6 and 198.8
[1]; concentration 1 μM, one value per experiment
  T50: 245.5 and 222.6 and 227.433
[1]; concentration 3 μM, one value per experiment
  T50: 295.5 and 257.733 and 269.633
[1]; concentration 10 μM, one value per experiment
  T50: 669.833 and 505.133 and 608.55
[1]; from c350 in mg/L
  stronger inhibition than (OEG11)2-IP4, activity by unit mass: 32%
[1]
  activity/unit mass: 4.30 mg/L
  concentration upon which a T50 of 350 min is reached (c350), mean: 4.9 µM
[1]; one value per experiment (lab journal reference E05-E40)
  concentration upon which a T50 of 350 min is reached (c350), single experiment: 4.3 µM and 5.9 µM and 5.0 µM and 3.6 µM and 5.4 µM
[1]; pooled human serum, 10 mM calcium, 6 mM phosphate, 37 °C
  Concentration at T50 = 350 min mean ± s.d. (n) (c350): 4.9 ± 0.8 µM and 4.3 ± 0.7 mg/L

## O=P(O)(O)O[C@H]1[C@H](OP(=O)(O)O)[C@@H](OP(=O)(O)O)[C@H](OP(=O)(O)O)[C@@H](OP(=O)(O)O)[C@H]1OP(=O)(O)O [IP6, myo-Inositol hexakisphosphate]
CPP2
  IC50: 3.96 µM
CPP2; concentration 0.75 (unit not given)
  18F-NaF percentage binding to CPP2: 94.1339% and 121.154% and 102.128%
CPP2; concentration 2.5 (unit not given)
  18F-NaF percentage binding to CPP2: 93.0288% and 114.326% and 101.486%
CPP2; concentration 7.5 (unit not given)
  18F-NaF percentage binding to CPP2: 92.4582% and 110.79% and 97.129%
CPP2; concentration 25 (unit not given)
  18F-NaF percentage binding to CPP2: 95.6995% and 114.564% and 112.333%
CPP2; concentration 75 (unit not given)
  18F-NaF percentage binding to CPP2: 85.0945% and 107.18% and 113.212%
CPP2; concentration 250 (unit not given)
  18F-NaF percentage binding to CPP2: 87.0585% and 108.409% and 103.034%
CPP2; concentration 750 (unit not given)
  18F-NaF percentage binding to CPP2: 87.2718% and 107.684% and 96.5293%
CPP2; concentration 1750 (unit not given)
  18F-NaF percentage binding to CPP2: 100.593% and 62.29% and 66.5713%
CPP2; concentration 2500 (unit not given)
  18F-NaF percentage binding to CPP2: 85.021% and 85.5383% and 72.51%
CPP2; concentration 7500 (unit not given)
  18F-NaF percentage binding to CPP2: 76.4111% and 59.8209% and 66.7993%
CPP2; concentration 25000 (unit not given)
  18F-NaF percentage binding to CPP2: 66.3738% and 68.2115% and 51.6692%
CPP2; concentration 75000 (unit not given)
  18F-NaF percentage binding to CPP2: 48.1457% and 55.4993% and 51.2901%
CPP2; concentration 250000 (unit not given)
  18F-NaF percentage binding to CPP2: 52.9543% and 43.7782% and 27.6001%
CPP2; concentration 750000 (unit not given), replicates Fig. 2c
  18F-NaF percentage binding to CPP2: 50.6666% and 38.054% and 33.4917%
[1]; [2]
  T50: 234.667 min and 274 min and 233.967 min and 253.933 min and 243.267 min and 241.767 min and 246.2 min and 235.9 min and 228.633 min and 203.267 min and 288.2 min and 222.867 min and 230.267 min and 213.667 min and 216.7 min and 265.633 min and 255.267 min
[1]; 4.1 µM, individual experiments, Fig. 2a
  T50: 217.4 min and 239.4 min and 277.7 min and 241.067 min
[1]; 5 µM, individual experiments, Fig. 2a
  T50: 249.8 min and 203.1 min and 210 min
[1]; 8.2 µM, individual experiments, Fig. 2a
  T50: 256.2 min
[1]; [3]
  T50: 257.5 min and 310.933 min and 271.067 min and 277.3 min and 252.767 min and 292.233 min and 259.167 min and 287.2 min and 285.433 min and 258.3 min and 249.2 min and 255.267 min and 337.4 min and 269.2 min and 241.433 min and 220.9 min and 227.45 min and 265.233 min and 247.333 min and 278 min and 268.867 min
[1]; 15 µM, individual experiments, Fig. 2a
  T50: 257.433 min and 252.1 min and 309.067 min and 247.867 min
[1]; 20 µM, individual experiments, Fig. 2a
  T50: 287.15 min and 265.7 min and 269.8 min
[1]; 30 µM, individual experiments, Fig. 2a
  T50: 345.45 min and 406.133 min and 372.8 min and 351.75 min and 343.7 min and 344.2 min and 259.35 min and 335.5 min and 347.9 min and 378.6 min and 321.233 min and 338 min and 297.667 min and 289.1 min and 328.133 min and 313.633 min and 374.867 min and 311.7 min and 330.9 min and 290.033 min and 322.15 min and 364.5 min and 339.867 min
[1]; 50 µM, individual experiments, Fig. 2a
  T50: 415 min and 521.55 min and 441.5 min and 442 min and 442.167 min and 430.55 min and 469.15 min and 469.7 min and 444.5 min and 341.15 min and 548.25 min and 437.6 min and 408.433 min and 339.067 min and 334.933 min and 396.5 min and 364.133 min and 373.7 min and 353.2 min and 360.8 min and 372.45 min and 446.2 min and 371.033 min and 410.7 min
[1]
  activity/unit mass: 30.85 mg/L
  concentration upon which a T50 of 350 min is reached (c350), mean: 35.0 µM
